Experimental data from PubChem BioAssay AID2060491 (Molecular Pharmacology Branch, DTP, NCI, 2025).
Values belong to the compound of their own block, whether it stands above or below them.

Tested on: 857933-349-R-J2-PDC complex spheroids, viability
Test: Anticancer human tumor 857933-349-R-J2-PDC patient-derived colon adenocarcinoma cell line growth inhibition [GQUAD]
Details: for IC50: curve of first compound; for viability, T/C: stronger effect = lower value
How it was run: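 Tumor cells were grown as complex spheroids with HUVEC endothelial cells and mesenchymal stem cells as stroma. G-quadruplex stabilizers were combined with targeted agents over half-log dilutions from near the clinical Cmax, or from 10 microM.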

[1] = second compound 0.0316 µM, first compound 0.0316 µM
[2] = second compound 0.0316 µM, first compound 0.1 µM
[3] = second compound 0.0316 µM, first compound 0.316 µM
[4] = second compound 0.0316 µM, first compound 1 µM
[5] = second compound 0.0316 µM, first compound 3.16 µM
[6] = second compound 0.0316 µM, first compound 10 µM
[7] = second compound 0.1 µM, first compound 0.0316 µM
[8] = second compound 0.1 µM, first compound 0.1 µM
[9] = second compound 0.1 µM, first compound 0.316 µM
[10] = second compound 0.1 µM, first compound 1 µM
[11] = second compound 0.1 µM, first compound 3.16 µM
[12] = second compound 0.1 µM, first compound 10 µM
[13] = second compound 0.316 µM, first compound 0.0316 µM
[14] = second compound 0.316 µM, first compound 0.1 µM
[15] = second compound 0.316 µM, first compound 0.316 µM
[16] = second compound 0.316 µM, first compound 1 µM
[17] = second compound 0.316 µM, first compound 3.16 µM
[18] = second compound 0.316 µM, first compound 10 µM
[19] = second compound 1 µM, first compound 0.0316 µM
[20] = second compound 1 µM, first compound 0.1 µM
[21] = second compound 1 µM, first compound 0.316 µM
[22] = second compound 1 µM, first compound 1 µM
[23] = second compound 1 µM, first compound 3.16 µM
[24] = second compound 1 µM, first compound 10 µM
[25] = second compound 3.16 µM, first compound 0.0316 µM
[26] = second compound 3.16 µM, first compound 0.1 µM
[27] = second compound 3.16 µM, first compound 0.316 µM
[28] = second compound 3.16 µM, first compound 1 µM
[29] = second compound 3.16 µM, first compound 3.16 µM
[30] = second compound 3.16 µM, first compound 10 µM
[31] = second compound 10 µM, first compound 0.0316 µM
[32] = second compound 10 µM, first compound 0.1 µM
[33] = second compound 10 µM, first compound 0.316 µM
[34] = second compound 10 µM, first compound 1 µM
[35] = second compound 10 µM, first compound 3.16 µM
[36] = second compound 10 µM, first compound 10 µM
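Further: spheroids exposed to compounds for one week before readout.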
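Wherever viability, T/C is given: percent viability relative to vehicle DMSO wells taken as 100%.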

SMILES: COc1ncnc(C2CC2)c1-c1ncc2cnn(Cc3ccc(-c4nc(C(F)(F)F)cn4C(C)C)cc3)c2n1 + Cc1[nH]c2ccc(F)cc2c1-c1nc2c3cccnc3c3ncccc3c2[nH]1
IC50 (second compound 0.0316 µM): > 10 µM
IC50 (second compound 0.1 µM): > 10 µM
IC50 (second compound 0.316 µM): > 10 µM
IC50 (second compound 1 µM): > 10 µM
IC50 (second compound 3.16 µM): > 10 µM
IC50 (second compound 10 µM): > 10 µM
viability, T/C [1]: 102%
viability, T/C [2]: 104%
viability, T/C [3]: 99%
viability, T/C [4]: 104%
viability, T/C [5]: 109%
viability, T/C [6]: 103%
viability, T/C [7]: 106%
viability, T/C [8]: 106%
viability, T/C [9]: 107%
viability, T/C [10]: 106%
viability, T/C [11]: 98%
viability, T/C [12]: 102%
viability, T/C [13]: 102%
viability, T/C [14]: 100%
viability, T/C [15]: 96.1%
viability, T/C [16]: 100%
viability, T/C [17]: 94.3%
viability, T/C [18]: 95.6%
viability, T/C [19]: 102%
viability, T/C [20]: 91.4%
viability, T/C [21]: 96.3%
viability, T/C [22]: 87.9%
viability, T/C [23]: 98.4%
viability, T/C [24]: 90.7%
viability, T/C [25]: 98%
viability, T/C [26]: 83.1%
viability, T/C [27]: 84.5%
viability, T/C [28]: 83.2%
viability, T/C [29]: 92.5%
viability, T/C [30]: 83.4%
viability, T/C [31]: 86.3%
viability, T/C [32]: 87.7%
viability, T/C [33]: 84.6%
viability, T/C [34]: 91.3%
viability, T/C [35]: 90.3%
viability, T/C [36]: 88.2%

SMILES: Cc1[nH]c2ccccc2c1CCNCc1ccc(/C=C/C(=O)NO)cc1 + Cc1[nH]c2ccc(F)cc2c1-c1nc2c3cccnc3c3ncccc3c2[nH]1
IC50 (second compound 0.0316 µM): > 0.316 µM
IC50 (second compound 0.1 µM): > 0.316 µM
IC50 (second compound 0.316 µM): > 0.316 µM
IC50 (second compound 1 µM): > 0.316 µM
IC50 (second compound 3.16 µM): > 0.316 µM
IC50 (second compound 10 µM): > 0.316 µM
viability, T/C (second compound 0.0316 µM, first compound 0.000999 µM): 103%
viability, T/C (second compound 0.0316 µM, first compound 0.00316 µM): 95.8%
viability, T/C (second compound 0.0316 µM, first compound 0.00999 µM): 97.6%
viability, T/C [1]: 104%
viability, T/C (second compound 0.0316 µM, first compound 0.0999 µM): 94%
viability, T/C [3]: 59.1%
viability, T/C (second compound 0.1 µM, first compound 0.000999 µM): 104%
viability, T/C (second compound 0.1 µM, first compound 0.00316 µM): 101%
viability, T/C (second compound 0.1 µM, first compound 0.00999 µM): 102%
viability, T/C [7]: 106%
viability, T/C (second compound 0.1 µM, first compound 0.0999 µM): 99.7%
viability, T/C [9]: 60.7%
viability, T/C (second compound 0.316 µM, first compound 0.000999 µM): 101%
viability, T/C (second compound 0.316 µM, first compound 0.00316 µM): 104%
viability, T/C (second compound 0.316 µM, first compound 0.00999 µM): 96%
viability, T/C [13]: 92.8%
viability, T/C (second compound 0.316 µM, first compound 0.0999 µM): 107%
viability, T/C [15]: 59.2%
viability, T/C (second compound 1 µM, first compound 0.000999 µM): 109%
viability, T/C (second compound 1 µM, first compound 0.00316 µM): 90%
viability, T/C (second compound 1 µM, first compound 0.00999 µM): 93.7%
viability, T/C [19]: 97.7%
viability, T/C (second compound 1 µM, first compound 0.0999 µM): 105%
viability, T/C [21]: 61.4%
viability, T/C (second compound 3.16 µM, first compound 0.000999 µM): 90.8%
viability, T/C (second compound 3.16 µM, first compound 0.00316 µM): 79.8%
viability, T/C (second compound 3.16 µM, first compound 0.00999 µM): 86.2%
viability, T/C [25]: 88%
viability, T/C (second compound 3.16 µM, first compound 0.0999 µM): 104%
viability, T/C [27]: 66.8%
viability, T/C (second compound 10 µM, first compound 0.000999 µM): 87%
viability, T/C (second compound 10 µM, first compound 0.00316 µM): 89.4%
viability, T/C (second compound 10 µM, first compound 0.00999 µM): 88.1%
viability, T/C [31]: 95.3%
viability, T/C (second compound 10 µM, first compound 0.0999 µM): 105%
viability, T/C [33]: 61%

SMILES: O=C(NO)c1cnc(N2CCN(S(=O)(=O)c3ccc4ccccc4c3)CC2)nc1 + Cc1[nH]c2ccc(F)cc2c1-c1nc2c3cccnc3c3ncccc3c2[nH]1
IC50 (second compound 0.0316 µM): 1.53 µM
IC50 (second compound 0.1 µM): 1.59 µM
IC50 (second compound 0.316 µM): 1.61 µM
IC50 (second compound 1 µM): 1.68 µM
IC50 (second compound 3.16 µM): 1.6 µM
IC50 (second compound 10 µM): 1.77 µM
viability, T/C [1]: 107%
viability, T/C [2]: 96.5%
viability, T/C [3]: 107%
viability, T/C [4]: 79%
viability, T/C [5]: 1.25%
viability, T/C [6]: 0.26%
viability, T/C [7]: 109%
viability, T/C [8]: 103%
viability, T/C [9]: 100%
viability, T/C [10]: 81.9%
viability, T/C [11]: 2.07%
viability, T/C [12]: 0.2%
viability, T/C [13]: 101%
viability, T/C [14]: 100%
viability, T/C [15]: 96.1%
viability, T/C [16]: 80.5%
viability, T/C [17]: 6.68%
viability, T/C [18]: 0.19%
viability, T/C [19]: 94.7%
viability, T/C [20]: 92.4%
viability, T/C [21]: 98.2%
viability, T/C [22]: 84.8%
viability, T/C [23]: 7.25%
viability, T/C [24]: 0.23%
viability, T/C [25]: 93.1%
viability, T/C [26]: 93.7%
viability, T/C [27]: 96.1%
viability, T/C [28]: 80.8%
viability, T/C [29]: 4.92%
viability, T/C [30]: 0.25%
viability, T/C [31]: 95.7%
viability, T/C [32]: 94.2%
viability, T/C [33]: 99.2%
viability, T/C [34]: 93.6%
viability, T/C [35]: 5.75%
viability, T/C [36]: 0.31%

IC50 (second compound 0.0316 µM): 0.8 µM
IC50 (second compound 0.1 µM): 0.327 µM
IC50 (second compound 0.316 µM): < 0.0316 µM
IC50 (second compound 1 µM): < 0.0316 µM
IC50 (second compound 3.16 µM): < 0.0316 µM
IC50 (second compound 10 µM): < 0.0316 µM
SMILES: CC1COCCN1c1cc(C2(S(C)(=N)=O)CC2)nc(-c2ccnc3[nH]ccc23)n1 (stereo not drawn) + Cc1cnc(CNC(=O)c2c(=O)c3ccc(N4CCCN(C)CC4)nc3n3c2sc2ccccc23)cn1
viability, T/C [1]: 82%
viability, T/C [2]: 75.7%
viability, T/C [3]: 72.3%
viability, T/C [4]: 43.8%
viability, T/C [5]: 42.1%
viability, T/C [6]: 31.9%
viability, T/C [7]: 56.5%
viability, T/C [8]: 68.6%
viability, T/C [9]: 45.8%
viability, T/C [10]: 39.1%
viability, T/C [11]: 34.4%
viability, T/C [12]: 26.7%
viability, T/C [13]: 26.8%
viability, T/C [14]: 31.2%
viability, T/C [15]: 20.8%
viability, T/C [16]: 13.4%
viability, T/C [17]: 10.6%
viability, T/C [18]: 10%
viability, T/C [19]: 5.52%
viability, T/C [20]: 6.04%
viability, T/C [21]: 4.55%
viability, T/C [22]: 3.48%
viability, T/C [23]: 3.6%
viability, T/C [24]: 4.17%
viability, T/C [25]: 2.4%
viability, T/C [26]: 2.9%
viability, T/C [27]: 2.49%
viability, T/C [28]: 1.88%
viability, T/C [29]: 1.99%
viability, T/C [30]: 2.82%
viability, T/C [31]: 1.11%
viability, T/C [32]: 1.51%
viability, T/C [33]: 1.22%
viability, T/C [34]: 1.75%
viability, T/C [35]: 1.64%
viability, T/C [36]: 2.19%
